{"source": "patent US5506204A", "about": "“Muramyl compounds for treatment of septic shock” (Peptech (UK) Limited, priority 1991, dated 1996)", "key": {"neutrophils [1]": {"test_system": "neutrophils", "experimental": "(§1) Neutrophils were isolated from peripheral blood. 3.5 ml of heparinised blood was spread over M-PRM medium (Flow Laboratories) and centrifuged for 40 minutes at 400g at 20° C. […] The cells were adjusted to a concentration of 2×10^6 ml.\n(§2) Chemiluminescence: Luminol-dependent chemiluminescence was measured on a 1251 Luminometer (LKB).\n(§3) For chemiluminescence, superoxide anion production, myeloperoxidase and acid phosphatase both the spontaneous and induced reactions were measured. Induction was performed by exposing the cells to opsonized zymosan (30 μl, 20 mg/ml) for 30 minutes at 37° C. before the assay.\n(§4) In the treated group GMDP was given per os on days -2 and -1 before the operation, and subcutaneously on days +1, +2 and +3 after the operation at a dose of 1-2 mg/day. The total dose of GMDP was […]. On day +5 after the operation neutrophil function was again assessed in all patients by the same parameters as specified above."}, "neutrophils [2]": {"test_system": "neutrophils", "experimental": "as §1, §2, §3\n(§5) On day before treatment with GMDP (day -1) the neutrophil function of all patients was measured by the tests described above in Example 1. In the GMDP-treated group, GMDP was administered parenterally at a dose of 1-2 mg/day for five consecutive days. The total dose of GMDP was […].\n(§6) One day after the cessation of GMDP treatment (day +6), neutrophil function was again measured in all patients.", "remark": "listed apart in the source"}, "mice": {"test_system": "mice", "conditions": "acute toxicity in mice; cited from earlier work"}, "neutrophils [3]": {"test_system": "neutrophils", "experimental": "as §1\nAcid phosphatase: 50 μl of substrate mixture, consisting of 0.24% paranitrophenyl phosphate (Boehring) and 0.84% NaCl in a sodium citrate buffer (pH 5.5) were added to cells and incubated for 30 minutes at 30° C. before the reaction was by adding 100 μl of 0.2M NaOH. The optical density at 405 mu was measured with a Multiscan Titertek Plus (Flow Laboratories).\nas §3, §5, §6", "remark": "listed apart in the source"}, "neutrophils [4]": {"test_system": "neutrophils", "experimental": "as §1\n(§7) Myeloperoxidase: 100 μl of substrate mixture, consisting of 0.04% orthophenylene diamine (Sigma) and 0.014% hydrogen peroxide in phosphate citrate buffer (pH 5.0) was added to cells and incubated for 10 minutes before the reaction was stopped with 100 μl of 10% sulphuric acid. The optical density at 492 mu was measured with a Multiscan Titertek Plus (Flow Laboratories).\nas §3, §5, §6", "remark": "listed apart in the source"}, "neutrophils [5]": {"test_system": "neutrophils", "experimental": "as §1, §7, §3, §4", "remark": "listed apart in the source"}, "[6]": {"test_system": "LPS-induced mortality in mice", "test": "Example 3: LPS-induced mortality in mice", "assay_type": "in vivo, BALB/c mice", "conditions": "i.p. twice daily 100 μg or molar equivalent per mouse for 9 days before 300 μg LPS; mortality 2 days after LPS; FIG. 1", "experimental": "25 female BALB/c mice weighing 16-18 g each were divided into 5 groups, each group containing 5 animals. Each group of mice received twice-daily doses of saline, GMDP, GMDP-OBu, MDP or GMDP-A. The compounds were administered by intra-peritoneal injection in twice-daily doses of 100 μg or the molar equivalent per mouse during a 9-day period before the injection of 300 μg LPS per mouse. […] Thus GMDP and GMDP-A would be useful in the treatment and prevention of sepsis and septic shock, whereas MDP and GMDP-OBu would not."}, "TNFα": {"test_system": "TNFα", "test": "Example 5: TNF production in whole blood culture", "assay_type": "cell-based", "conditions": "human blood diluted 1:2, 6 hours at 37° C., TNFα capture ELISA; FIG. 3", "experimental": "Whole heparinized human blood was diluted 1:2 with RPMI and dispensed into 96-well microtitre plates. Individual wells were treated with saline, GMDP, MDP or LPS at the doses shown above. After incubating at 37° C. for 6 hours, the supernatants were assayed for TNFα by a standard capture ELISA method. […] This is a sensitive assay for measuring the effect of mediators on immune cell production of TNFα which is believed to be a primary mediator of inflammation, coagulopathy and death in sepsis and septic shock. It can be seen that GMDP is the least inflammatory mediator; the respective TNF inducing activities of these substances would […] correlate with their toxicities."}, "serum TNF": {"test_system": "serum TNF", "test": "Example 7: LPS induction of serum TNF", "assay_type": "in vivo, BALB/c mice", "conditions": "C. parvum-primed mice, 100 μg (equimolar) IP, LPS 25 μg 18 hours later; FIG. 5", "experimental": "In this experiment, 4 compounds were tested and these are: MDP, GMDP-A, GMDP-OBu and GMDP. Saline was administered to control mice. BALB/c mice (6 mice/group) were injected intraperitoneally with 1.4 mg of dead C. parvum (0.2 ml of a 7 mg/ml suspension.). Mice were subsequently (2 weeks later) treated with saline, MDP (100 μg) or analogue (100 μg) in 0.5 ml saline IP. The dose of each `MDP` was adjusted so that animals received equimolar amounts. LPS (25 μg) was injected 18 hours after the injection of MDP/analogue and mice were subsequently sacrificed and bled out. TNF was determined by standard capture ELISA assay."}, "neutrophils [7]": {"test_system": "neutrophils", "experimental": "as §1\nSuperoxide anion production was determined by the NBT test (Merck).\nas §3, §4", "remark": "listed apart in the source"}, "neutrophils [8]": {"test_system": "neutrophils", "experimental": "as §1\nAdhesion: 100 μl of neutrophil suspension were placed in the wells of a flat-bottomed culture dish, and incubated at 37° C. for 60 minutes. After washing off the non-adhesive cells, the adhered neutrophils were fixed with ethanol and stained with Romanovsky-Giemsa dye. After washing out the free dye, the cell-associated dye was dissolved in isopropanol, and the optical density (OD650) of the solution was determined using an \"ELISA II\" microprocessor (Boehringer). The number of adherent cells was calculated by reference to a standard curve.\nas §5, §6", "remark": "listed apart in the source"}, "[9]": {"conditions": "opsonized zymosan, Day -3 (before treatment)"}, "[10]": {"conditions": "opsonized zymosan, Day -3 to Day +5"}, "[11]": {"conditions": "opsonized zymosan, Day -1 (before treatment)"}, "[12]": {"conditions": "opsonized zymosan, Day -1 to Day +6"}}, "note": "Like-named read-outs stand apart in the source and are kept apart here.", "data": [{"smiles": "CC(=O)NC1C(OC2C(CO)OC(O)C(NC(C)=O)C2OC(C)C(=O)NC(C)C(=O)NC(CCC(=O)O)C(N)=O)OC(CO)C(O)C1O", "note": "[GMDP, N-acetyl-D-glucosaminyl-(β1-4)-N-acetylmuramyl-L-alanyl-D-isoglutamine]", "values": [{"measurement": "Chemiluminescence, spontaneous", "setting": "neutrophils [1]; Day +5", "result": "3.37 ± 0.70", "unit": "mV"}, {"measurement": "Chemiluminescence, spontaneous", "setting": "neutrophils [1]; Day -3 (before treatment)", "result": "1.82 ± 0.07", "unit": "mV"}, {"measurement": "Chemiluminescence, spontaneous % Change", "setting": "neutrophils [1]; Day -3 to Day +5", "result": "+85.2%"}, {"measurement": "Chemiluminescence, induced", "setting": "neutrophils [1]; opsonized zymosan, Day +5", "result": "15.8 ± 4.2", "unit": "mV"}, {"measurement": "Chemiluminescence, induced", "setting": "neutrophils [1]; [9]", "result": "11.3 ± 2.1", "unit": "mV"}, {"measurement": "Chemiluminescence, induced % Change", "setting": "neutrophils [1]; [10]", "result": "+39.8%"}, {"measurement": "Chemiluminescent, spontaneous", "setting": "neutrophils [2]; Day +6", "result": "4.16 ± 0.14", "unit": "mV"}, {"measurement": "Chemiluminescent, spontaneous", "setting": "neutrophils [2]; Day -1 (before treatment)", "result": "2.41 ± 0.14", "unit": "mV"}, {"measurement": "Chemiluminescent, spontaneous % Change", "setting": "neutrophils [2]; Day -1 to Day +6", "result": "+72.6%"}, {"measurement": "Chemiluminescent, induced", "setting": "neutrophils [2]; opsonized zymosan, Day +6", "result": "21.3 ± 3.51", "unit": "mV"}, {"measurement": "Chemiluminescent, induced", "setting": "neutrophils [2]; [11]", "result": "9.41 ± 2.1", "unit": "mV"}, {"measurement": "Chemiluminescent, induced % Change", "setting": "neutrophils [2]; [12]", "result": "+126.4%"}, {"measurement": "LD50", "setting": "mice", "result": 7000, "unit": "mg/kg"}, {"measurement": "Acid phosphatase, spontaneous", "setting": "neutrophils [3]; Day +6", "result": "251.3 ± 16.1", "unit": "O.D. 405μ"}, {"measurement": "Acid phosphatase, spontaneous", "setting": "neutrophils [3]; Day -1 (before treatment)", "result": "119.4 ± 10.1", "unit": "O.D. 405μ"}, {"measurement": "Acid phosphatase, spontaneous % Change", "setting": "neutrophils [3]; Day -1 to Day +6", "result": "+110.5%"}, {"measurement": "Acid phosphatase, induced", "setting": "neutrophils [3]; opsonized zymosan, Day +6", "result": "201 ± 14.3", "unit": "O.D. 405μ"}, {"measurement": "Acid phosphatase, induced", "setting": "neutrophils [3]; [11]", "result": "104.4 ± 3.6", "unit": "O.D. 405μ"}, {"measurement": "Acid phosphatase, induced % Change", "setting": "neutrophils [3]; [12]", "result": "+92.5%"}, {"measurement": "Myeloperoxidase, spontaneous", "setting": "neutrophils [4]; Day +6", "result": "595.2 ± 48.3", "unit": "O.D. 492μ"}, {"measurement": "Myeloperoxidase, spontaneous", "setting": "neutrophils [4]; Day -1 (before treatment)", "result": "504.5 ± 118", "unit": "O.D. 492μ"}, {"measurement": "Myeloperoxidase, spontaneous % Change", "setting": "neutrophils [4]; Day -1 to Day +6", "result": "+17.9%"}, {"measurement": "Myeloperoxidase, induced", "setting": "neutrophils [4]; opsonized zymosan, Day +6", "result": "587.1 ± 96.3", "unit": "O.D. 492μ"}, {"measurement": "Myeloperoxidase, induced", "setting": "neutrophils [4]; [11]", "result": "520.3 ± 60.1", "unit": "O.D. 492μ"}, {"measurement": "Myeloperoxidase, induced % Change", "setting": "neutrophils [4]; [12]", "result": "+12.8%"}, {"measurement": "Myeloperoxidase, spontaneous", "setting": "neutrophils [5]; Day +5", "result": "1075 ± 178.3", "unit": "O.D. 492μ"}, {"measurement": "Myeloperoxidase, spontaneous", "setting": "neutrophils [5]; Day -3 (before treatment)", "result": "1145 ± 204.1", "unit": "O.D. 492μ"}, {"measurement": "Myeloperoxidase, spontaneous % Change", "setting": "neutrophils [5]; Day -3 to Day +5", "result": -6.1, "unit": "%"}, {"measurement": "Myeloperoxidase, induced", "setting": "neutrophils [5]; opsonized zymosan, Day +5", "result": "948.3 ± 205", "unit": "O.D. 492μ"}, {"measurement": "Myeloperoxidase, induced", "setting": "neutrophils [5]; [9]", "result": "948.3 ± 205", "unit": "O.D. 492μ"}, {"measurement": "Myeloperoxidase, induced % Change", "setting": "neutrophils [5]; [10]", "result": "+11.2%"}, {"measurement": "effect on LPS-induced mortality", "setting": "[6]", "result": "antagonise the effect of LPS"}, {"measurement": "TNF production in whole blood culture", "setting": "TNFα", "result": "poor inducer of TNF"}, {"measurement": "effect on LPS induction of serum TNF", "setting": "serum TNF", "result": "able to suppress the production of TNFα"}, {"measurement": "Superoxide, spontaneous", "setting": "neutrophils [7]; Day +5", "result": "97.6 ± 12.8"}, {"measurement": "Superoxide, spontaneous", "setting": "neutrophils [7]; Day -3 (before treatment)", "result": "78.9 ± 15.7"}, {"measurement": "Superoxide, spontaneous % Change", "setting": "neutrophils [7]; Day -3 to Day +5", "result": "+23.7%"}, {"measurement": "Superoxide, induced", "setting": "neutrophils [7]; opsonized zymosan, Day +5", "result": "134.9 ± 11.3"}, {"measurement": "Superoxide, induced", "setting": "neutrophils [7]; [9]", "result": "133.7 ± 16.1"}, {"measurement": "Superoxide, induced % Change", "setting": "neutrophils [7]; [10]", "result": "+0.9%"}, {"measurement": "Adhesion", "setting": "neutrophils [8]; Day +6", "result": "52.3 ± 2.3", "unit": "O.D. 650μ"}, {"measurement": "Adhesion", "setting": "neutrophils [8]; Day -1 (before treatment)", "result": "34.6 ± 6.2", "unit": "O.D. 650μ"}, {"measurement": "Adhesion % Change", "setting": "neutrophils [8]; Day -1 to Day +6", "result": "+51.2%"}]}]}
